From article PMC6627486, “Ipomoeassin F Binds Sec61α to Inhibit Protein Translocation” (Journal of the American Chemical Society, 2019)
pIC50: −log10 of the molar value.

How the values were obtained:
MDA-MB-231 = assay: AlamarBlue cytotoxicity assay, MDA-MB-231; format: cell-based, human; conditions: MDA-MB-231, 72 h, AlamarBlue; read-out: Cytotoxicity (IC50)
Description: (§1) AlamarBlue Cytotoxicity Assay
(§2) MDA-MB-231, MCF-10A and HCT116. Viable cells were counted with a hemocytometer immediately before each experiment . Experiments were done in triplicate. First, 100 μL of MDA-MB-231 cells or MCF-10A cells at the density of 50,000 cells/mL was seeded in a 96-well plate (5,000 cells/well) and then incubated at 37 °C and 5% CO2 for 24 h. The compounds were dissolved in DMSO (dimethyl sulfoxide) to make drug stocks (10 mM). The stock solutions were diluted with the complete DMEM high glucose culture medium to make a series of gradient fresh working solutions right before each test. Subsequently, the cells were treated with 100 μL of the freshly made gradient working solution in a total volume of 200 μL/well for 72 h. After that, the media were discarded and 200 μL of the fresh complete medium containing 10% of AlamarBlue (resazurin) stock solution was added to each well. The plate was then incubated at 37 °C and 5% CO2 for another 3 h. Emission of each well at 620 nm was detected by a microplate reader (BioTek Synergy H1) at excitation 580 nm. […]
(§3) Microplate Reader. The percentage of viability compared to the negative control (DMSO-treated cells) […]
(§4) was determined. […]

MCF7 = assay: MTT cytotoxicity assay, MCF7; format: cell-based, human; conditions: MCF7, 72 h, MTT; read-out: Cytotoxicity (IC50)
Description: Two human breast cancer cell lines (MDA-MB-231 and MCF7) and one human breast non-tumorigenic epithelial cell line (MCF-10A) were maintained in a DMEM high glucose culture medium supplemented with 10% fetal bovine serum (FBS) and 2 mM L-glutamine. The cells were grown in a humidified atmosphere of 5% CO2 and 95% air at 37 °C . The culture medi um w as changed every 2–4 days depending on cell density. Cell cultures were passaged once a week using 0.125% trypsin-EDTA to detach the cells from culture flasks/dishes.
The human colorectal cancer cell line HCT116 was maintained in McCoy’s 5A (modified) medium supplemented with 10% fetal bovine serum (FBS). The human embryonic kidney (HEK293T and HEK293 FRT TRex) cell line was maintained in DMEM high glucose culture medium supplemented with 10% fetal bovine serum (FBS).
HepG2 cells were cultured in DMEM supplemented with 10% fetal bovine serum and 2 mM L-glutamine at 37°C under 5% CO2.
Viable cells were counted with a hemocytometer immediately before each experiment. Experiments were done in triplicate. First, 100 μL of MCF7 cells at the density of 50,000 cells/mL were seeded in a 96-well plate (5,000 cells/well), which was incubated at 37 °C and 5% CO2 atmosphere for 24 h. The compounds were dissolved in DMSO (dimethyl sulfoxide) to make drug stocks (10 mM). The stock solutions were diluted with the complete DMEM high glucose culture medium to make a series of gradient fresh working solutions right before each test. Subsequently, the cells were treated with 100 μL of the freshly made gradient working solution in a total volume of 200 μL/well for 72 h. After that, the media were discarded and 200 μL of the fresh complete medium containing 10% of MTT stock solution (5 mg/mL) was added to each well. The plate was then incubated at 37 °C and 5% CO2 for 3 h. Next, 180 μL of the medium was discarded from each well , and 180 μL of DMSO was added to each well to dissol ve formazan crystals. Absorbance of formazan was detected by a microplate reader (BioTek Synergy H1) at 570 nm with 650 nm as the reference wavelength. The percentage of viability compared to the negative control (DMSO-treated cells) was determined . GraphPad Prism 6 software was used to make a plot of %

MCF-10A = assay: AlamarBlue cytotoxicity assay, MCF-10A; format: cell-based, human; conditions: 72 h
Description: as §1, §2, §3, §4

[1] = test system: A2780 human ovarian cancer cells; parameters: method as in PMID 15844934; conditions: read-out: IC50, proliferation of A2780 cells; cited from earlier work
HCT116 = assay: cells; format: cell-based; conditions: Homo sapiens, HCT-116; HCT116, 72 h, Alamar Blue, assayed separately; read-out: Cytotoxicity (IC50)
Description: as §1
as §2, with “nm. For HCT116 WT and mutant lines, cells were seeded at 1000 cells/ well in complete McCoys medium. Compounds were diluted from a DMSO stock into culture medium as described above. Cells were treated for 96 h, then viability measured with AlamarBlue, detected using the conditions described but with a BMG Fluostar Optima Microplate Reader. The percentage of viability compared to the negative control (DMSO-treated cells) was determined.” for “nm.”
HCT116 and HEK293T. Viable cells were counted using an automated cell counter (BioRad TC20) before each experiment. […] Emission of each well at 620 nm was detected by a microplate reader (Perkin Elmer EnSpire) at excitation 580 nm. The percentage of viability compared to the negative control (DMSO -treated cells) was determined. […]
Figure S1. […] (C) HCT116 colon carcinoma cells were treated with increasing concentrations of analogues 8, 14, 15, CT8, ipomoeassin F or carrier (0.1% DMSO) and cell viability was assessed at 72 h by the Alamar Blue assay (mean ± S.D., n = 4). […]

[2] = target: T1, Sec61-mediated protein translocation (Canis lupus familiaris, UniProt P38377); assay: In vitro translation and Sec61-dependent translocation into ER microsomes; format: biochemical, canine; conditions: type II membrane protein Ii, ER microsomes
T1 construct: ER microsomes derived from canine pancreas; from tissue; host or cells: canine pancreas ER microsomes (nuclease-treated)
T1 sequence (P38377 whole entry): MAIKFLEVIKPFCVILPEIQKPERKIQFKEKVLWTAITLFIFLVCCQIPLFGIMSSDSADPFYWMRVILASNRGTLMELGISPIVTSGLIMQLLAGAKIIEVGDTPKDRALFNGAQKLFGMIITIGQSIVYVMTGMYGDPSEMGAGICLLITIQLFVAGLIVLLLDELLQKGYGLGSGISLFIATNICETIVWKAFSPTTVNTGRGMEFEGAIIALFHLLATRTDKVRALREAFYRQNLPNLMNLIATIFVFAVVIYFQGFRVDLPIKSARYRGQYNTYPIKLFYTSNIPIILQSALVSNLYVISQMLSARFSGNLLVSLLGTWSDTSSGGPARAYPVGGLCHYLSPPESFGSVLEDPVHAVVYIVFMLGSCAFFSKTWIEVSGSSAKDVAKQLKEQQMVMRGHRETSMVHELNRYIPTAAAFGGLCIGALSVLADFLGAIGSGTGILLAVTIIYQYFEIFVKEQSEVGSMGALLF
T1 sequence (P60467 whole entry, further chain): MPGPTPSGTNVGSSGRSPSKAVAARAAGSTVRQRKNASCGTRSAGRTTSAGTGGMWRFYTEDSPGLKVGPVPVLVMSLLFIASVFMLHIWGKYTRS
T1 sequence (P60058 whole entry, further chain): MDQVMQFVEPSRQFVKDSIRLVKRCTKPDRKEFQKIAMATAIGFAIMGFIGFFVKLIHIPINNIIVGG
Text: In Vitro Membrane Translocation Assays.
Unless otherwise stated, all cDNAs are of human origin and as previously described: CytB5OPG2,16 GypC,17 ppαF (Saccharomyces cerevisiae),16 ppcecAOPG2 (Hyalophora cecropia),16 PPL (Bos Taurus),16 Sec61βOPG216 and VCAM1.17 Ii encodes residues 17 to 232 of the short form of human HLA class II histocompatibility antigen gamma chain (Ii; P04232, isoform 2). Linear DNA templates were generated by PCR and transcribed into RNA using T7 or SP6 polymerase (Promega).
In vitro translation and translocation into ER microsomes
Translation reactions (20 μL) were performed in nuclease-treated rabbit reticulocyte lysate (Promega) in the presence of EasyTag EXPRESS 35S Protein Labelling Mix containing [35S] methionine (Perkin Elmer) (0.533 MBq; 30.15 TBq/mmol). Amino acids minus methionine (Promega) were added to 25 µM each, […]
equivalent volume of DMSO, and nuclease-treated ER microsomes (from stock with OD280 = 44/mL) were added to 6.5% (v/v). Lastly, 10% volume of in vitro transcribed mRNA (from 200-1000 ng/μL stocks) encoding the relevant precursor protein was added and translation reactions performed for 20 min at 30°C. Following incubation with 0.1 mM puromycin for 5 min at 30°C to ensure translational termination and ribosome release, membrane-associated fractions were isolated by centrifugation through an 80 μL high-salt cushion (0.75 M sucrose, 0.5 M KOAc, 5 mM Mg(OAc)2, 50 mM Hepes-KOH, pH 7.9) at 100,000 x g for 10 min at 4°C in a TLA100 rotor (Beckmann). Membrane pellets were suspended directly in SDS (sodium dodecyl sulphate) sample buffer (0.02% bromophenol blue, 62.5 mM, 4% (w/v) SDS, 10% (v/v) glycerol, pH 7.6, 1 M dithiothreitol) and, where indicated, treated with 1,000 U of Endoglycosidase H (New England Biolabs) for 30 min at 37°C prior to analysis. All samples were denatured for 10 min at 70°C prior to resolution by SDS-PAGE (12% or 16% polyacrylamide gels, 120 V, 120 min), gels were fixed (20% MeOH, 10% AcOH) for 5 min, dried (BioRad gel dryer) for 2 h at 65°C and, following exposure to a phosphorimaging plate for 24-72 h, radiolabelled products were visualised using a Typhoon FLA-7000 (GE Healthcare).
Quantitative analysis of Ii membrane insertion was performed using AIDA v.5.0 (Raytest Isotopenmeβgeräte) whereby the ratio of the signal intensity for the 2Gly/0Gly forms was used as a read-out to estimate efficiency of integration into the ER membrane. This value was then expressed relative to the matched DMSO control in order to derive the mean relative ER insertion from three independent experiments (n=3). Statistical significance of the effectiveness of Ipom-F analogues (RM one-way ANOVA) was determined using Tukey’s multiple comparisons test. IC50 value estimates were determined using non-linear regression to fit data to a curve of variable slope (four parameters) using the least squares fitting method in which the bottom and top plateaus of the curve were defined as 0% and 100% respectively. The differences between the estimated IC50 values for the three compounds analysed were statistically significant (****) according to the extra-sum-of-squares F test. Statistical analyses and IC50 estimates were performed using Prism 7.0d (GraphPad) with statistical significance given as n.s., non - significant and ****, P < 0.0001.
U2-OS secNLuc-ATZ Secretion and Cell Viability Assays

HCT-116 cells = assay: Metabolic labelling of nascent proteins in HCT116 cells; format: cell-based, human; conditions: HCT-116, 1 μM, 35S labelling
Description: Metabolic Labelling Assays in HCT116 Cells
HCT116 cells were counted using an automated cell counter (BioRad TC20) immediately prior to each experiment. 3 ml of HCT116 cells at a density of 0.166x10^6 cells/mL were seeded to 6-well plates (0.5x10^6 cells/well) and then incubated at 37 °C and 5% CO 2 for 24 h. The compounds were dissolved in DMSO to make drug stocks (10 mM). The stock solutions were diluted with DMEM high glucose culture medium lacking methionine and cysteine to make a fresh working solution immediately prior to each test. Cells were washed twice and 1ml of fresh DMEM lacking methionine and cysteine was added to each well.
Subsequently, the cells were treated with 250 µl of compound solutions in a total volume of 1 ,250 µl/well.
The plate was then incubated at 37 °C and 5% CO 2 for 30 min before 100 µCi 35S-labelled methionine/cysteine was added (Expre35s35s protein labelling mix). Plates were incubated for a further 30 min, then media collected and cells harvested by scraping after four washes in ice-cold PBS. Total protein was acquired by RIPA extraction from the cell pellet, cytoplasmic fraction was acquired by partial permeabilization of the outer cell membranes with 0.15% Digitonin followed by centrifugation, secreted proteins were acquired by TCA precipitation of the media. […]

## C/C=C(\C)C(=O)O[C@@H]1[C@@H](O)[C@@H]2O[C@H]3[C@H](O[C@@H](CCCCC)CCCCCCC(=O)CCC(=O)OC[C@@H](O2)[C@H]1OC(=O)/C=C/c1ccc(OCc2cn(CCOCCOCCOCCNS(=O)(=O)c4ccc(-c5c6ccc(=[N+](CC)CC)cc-6oc6cc(N(CC)CC)ccc56)c(S(=O)(=O)[O-])c4)nn2)cc1)O[C@H](C)[C@H](OC(C)=O)[C@@H]3O [compound 12]
MDA-MB-231
  pIC50: 6.60
MCF7
  pIC50: 6.76
MCF-10A
  pIC50: 6.87

## C/C=C(\C)C(=O)O[C@@H]1[C@@H](O)[C@@H]2O[C@H]3[C@H](O[C@@H](CCC)CCCCC[C@H](OC(C)=O)C(=O)CCC(=O)OC[C@@H](O2)[C@H]1OC(=O)/C=C/c1ccccc1)O[C@H](C)[C@H](OC(C)=O)[C@@H]3O [ipomoeassin D]
[1]
  pIC50: 7.46

## C/C=C(\C)C(=O)O[C@@H]1[C@@H](O)[C@@H]2O[C@H]3[C@H](O[C@@H](CCCCC)CCCCCCC(=O)CCC(=O)OC[C@@H](O2)[C@H]1OC(=O)CCc1ccccc1)O[C@H](C)[C@H](OC(C)=O)[C@@H]3O [compound 14]
HCT116
  pIC50: 5.73
[2]
  inhibition of Ii membrane insertion: far less effective inhibitor
HCT-116 cells
  inhibition of production of secreted proteins compared with ipomoeassin F: less potently

## CCCCC[C@H]1CCCCCCC(=O)CCC(=O)OC[C@H]2O[C@@H](O[C@H]3[C@H](O1)O[C@H](C)[C@H](OC(C)=O)[C@@H]3O)[C@H](O)[C@@H](OC(=O)C(C)CC)[C@@H]2OC(=O)/C=C/c1ccccc1 (stereo partly drawn) [compound 15]
HCT116
  pIC50: 6.32
HCT-116 cells
  inhibition of production of secreted proteins compared with ipomoeassin F: less potently
